Data as given in article PMC8571487 (Biochemistry and Biophysics Reports, 2021).

Biological target: T1, NcFADS (Neurospora crassa, UniProt Q7SCU7)
T1 sequence (Q7SCU7 49-318): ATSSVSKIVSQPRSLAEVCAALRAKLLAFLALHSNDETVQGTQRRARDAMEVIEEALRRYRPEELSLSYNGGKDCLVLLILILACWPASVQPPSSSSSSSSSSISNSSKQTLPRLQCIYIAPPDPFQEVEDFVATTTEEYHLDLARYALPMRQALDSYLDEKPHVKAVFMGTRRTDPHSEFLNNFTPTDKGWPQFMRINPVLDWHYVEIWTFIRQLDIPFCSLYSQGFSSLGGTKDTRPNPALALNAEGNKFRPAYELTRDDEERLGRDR
Assay: isothermal titration calorimetry
Format: binding

Kd [µM]	SMILES
20.8	Cc1cc2nc3c(=O)[nH]c(=O)nc-3n(C[C@H](O)[C@H](O)[C@H](O)COP(=O)(O)O)c2cc1C [FMN]
16.6	Nc1ncnc2c1ncn2[C@@H]1O[C@H](COP(=O)(O)OP(=O)(O)OP(=O)(O)O)[C@@H](O)[C@H]1O [MgATP^2−]
